The NIST ThermoML archive (doi:10.1016/j.jct.2019.02.026)
Numbers after ± are expanded uncertainties.

Conditions: Liquid, Falling or rolling sphere viscometry

## CCCCCCCCCCCC(=O)OC [methyl dodecanoate]
302.7 K, 30290 kPa
  viscosity: 3.6 ± 0.11 mPa·s
302.94 K, 20178 kPa
  viscosity: 3.15 ± 0.1 mPa·s
303.04 K, 110 kPa
  viscosity: 2.53 ± 0.08 mPa·s
303.04 K, 10512 kPa
  viscosity: 2.85 ± 0.09 mPa·s
312.33 K, 30212 kPa
  viscosity: 2.87 ± 0.09 mPa·s
312.5 K, 20279 kPa
  viscosity: 2.59 ± 0.08 mPa·s
312.61 K, 10214 kPa
  viscosity: 2.33 ± 0.07 mPa·s
312.63 K, 134 kPa
  viscosity: 2.09 ± 0.07 mPa·s
331.07 K, 29762 kPa
  viscosity: 2.04 ± 0.06 mPa·s
331.34 K, 20420 kPa
  viscosity: 1.86 ± 0.06 mPa·s
331.51 K, 10354 kPa
  viscosity: 1.67 ± 0.05 mPa·s
331.66 K, 132 kPa
  viscosity: 1.51 ± 0.05 mPa·s
351.24 K, 29906 kPa
  viscosity: 1.53 ± 0.05 mPa·s
351.57 K, 20226 kPa
  viscosity: 1.37 ± 0.04 mPa·s
351.74 K, 10090 kPa
  viscosity: 1.25 ± 0.04 mPa·s
351.81 K, 235 kPa
  viscosity: 1.14 ± 0.04 mPa·s
361.57 K, 30100 kPa
  viscosity: 1.35 ± 0.04 mPa·s
361.6 K, 19931 kPa
  viscosity: 1.25 ± 0.04 mPa·s
361.75 K, 10141 kPa
  viscosity: 1.12 ± 0.04 mPa·s
362.23 K, 2921 kPa
  viscosity: 1.05 ± 0.03 mPa·s

## CCCCCCCC(=O)OC [methyl octanoate]
294.65 K, 30063 kPa
  viscosity: 1.81 ± 0.06 mPa·s
294.79 K, 25004 kPa
  viscosity: 1.73 ± 0.05 mPa·s
295.08 K, 19995 kPa
  viscosity: 1.65 ± 0.05 mPa·s
295.22 K, 14978 kPa
  viscosity: 1.58 ± 0.05 mPa·s
295.3 K, 10017 kPa
  viscosity: 1.5 ± 0.05 mPa·s
295.48 K, 5004 kPa
  viscosity: 1.43 ± 0.05 mPa·s
295.62 K, 102 kPa
  viscosity: 1.37 ± 0.04 mPa·s
303.06 K, 29942 kPa
  viscosity: 1.58 ± 0.05 mPa·s
303.1 K, 25013 kPa
  viscosity: 1.52 ± 0.05 mPa·s
303.11 K, 20009 kPa
  viscosity: 1.46 ± 0.05 mPa·s
303.13 K, 5014 kPa
  viscosity: 1.27 ± 0.04 mPa·s
303.13 K, 15018 kPa
  viscosity: 1.39 ± 0.04 mPa·s
303.14 K, 9987 kPa
  viscosity: 1.33 ± 0.04 mPa·s
303.16 K, 98 kPa
  viscosity: 1.21 ± 0.04 mPa·s
312.35 K, 29980 kPa
  viscosity: 1.37 ± 0.04 mPa·s
312.4 K, 25014 kPa
  viscosity: 1.32 ± 0.04 mPa·s
312.44 K, 10045 kPa
  viscosity: 1.15 ± 0.04 mPa·s
312.44 K, 20035 kPa
  viscosity: 1.27 ± 0.04 mPa·s
312.47 K, 15056 kPa
  viscosity: 1.21 ± 0.04 mPa·s
312.49 K, 5022 kPa
  viscosity: 1.1 ± 0.03 mPa·s
312.51 K, 101 kPa
  viscosity: 1.05 ± 0.03 mPa·s
321.71 K, 29998 kPa
  viscosity: 1.21 ± 0.04 mPa·s
321.89 K, 25073 kPa
  viscosity: 1.16 ± 0.04 mPa·s
321.97 K, 9991 kPa
  viscosity: 1.01 ± 0.03 mPa·s
322.02 K, 5045 kPa
  viscosity: 0.97 ± 0.03 mPa·s
322.06 K, 20031 kPa
  viscosity: 1.11 ± 0.04 mPa·s
322.09 K, 103 kPa
  viscosity: 0.92 ± 0.03 mPa·s
322.11 K, 14992 kPa
  viscosity: 1.06 ± 0.03 mPa·s
331.51 K, 29993 kPa
  viscosity: 1.08 ± 0.03 mPa·s
331.6 K, 25035 kPa
  viscosity: 1.04 ± 0.03 mPa·s
331.61 K, 20038 kPa
  viscosity: 1 ± 0.03 mPa·s
331.62 K, 5013 kPa
  viscosity: 0.86 ± 0.03 mPa·s
331.72 K, 15022 kPa
  viscosity: 0.95 ± 0.03 mPa·s
331.73 K, 10033 kPa
  viscosity: 0.91 ± 0.03 mPa·s
331.87 K, 108 kPa
  viscosity: 0.82 ± 0.03 mPa·s
341.44 K, 29966 kPa
  viscosity: 0.96 ± 0.03 mPa·s
341.56 K, 25026 kPa
  viscosity: 0.92 ± 0.03 mPa·s
341.61 K, 15013 kPa
  viscosity: 0.84 ± 0.03 mPa·s
341.62 K, 20045 kPa
  viscosity: 0.88 ± 0.03 mPa·s
341.63 K, 4984 kPa
  viscosity: 0.76 ± 0.02 mPa·s
341.64 K, 10011 kPa
  viscosity: 0.8 ± 0.03 mPa·s
341.66 K, 97 kPa
  viscosity: 0.72 ± 0.02 mPa·s
351.58 K, 103 kPa
  viscosity: 0.64 ± 0.02 mPa·s
351.6 K, 4996 kPa
  viscosity: 0.68 ± 0.02 mPa·s
351.62 K, 29959 kPa
  viscosity: 0.87 ± 0.03 mPa·s
351.64 K, 10072 kPa
  viscosity: 0.72 ± 0.02 mPa·s
351.65 K, 15006 kPa
  viscosity: 0.75 ± 0.02 mPa·s
351.7 K, 19996 kPa
  viscosity: 0.79 ± 0.03 mPa·s
351.78 K, 25021 kPa
  viscosity: 0.83 ± 0.03 mPa·s
361.2 K, 9990 kPa
  viscosity: 0.64 ± 0.02 mPa·s
361.23 K, 4990 kPa
  viscosity: 0.61 ± 0.02 mPa·s
361.41 K, 19980 kPa
  viscosity: 0.72 ± 0.02 mPa·s
361.44 K, 15037 kPa
  viscosity: 0.68 ± 0.02 mPa·s
361.45 K, 103 kPa
  viscosity: 0.58 ± 0.02 mPa·s
361.59 K, 25011 kPa
  viscosity: 0.74 ± 0.02 mPa·s
361.74 K, 29991 kPa
  viscosity: 0.78 ± 0.02 mPa·s

## CCCCCCC(=O)OC [methyl heptanoate]
292.04 K, 30028 kPa
  viscosity: 1.5 ± 0.05 mPa·s
292.56 K, 25040 kPa
  viscosity: 1.42 ± 0.04 mPa·s
292.87 K, 19994 kPa
  viscosity: 1.35 ± 0.04 mPa·s
293.58 K, 14994 kPa
  viscosity: 1.28 ± 0.04 mPa·s
293.85 K, 9970 kPa
  viscosity: 1.22 ± 0.04 mPa·s
294.13 K, 4967 kPa
  viscosity: 1.17 ± 0.04 mPa·s
294.2 K, 107 kPa
  viscosity: 1.11 ± 0.04 mPa·s
302.83 K, 29961 kPa
  viscosity: 1.24 ± 0.04 mPa·s
302.93 K, 25017 kPa
  viscosity: 1.2 ± 0.04 mPa·s
303.02 K, 19985 kPa
  viscosity: 1.15 ± 0.04 mPa·s
303.05 K, 14993 kPa
  viscosity: 1.1 ± 0.03 mPa·s
303.08 K, 10026 kPa
  viscosity: 1.05 ± 0.03 mPa·s
303.12 K, 5011 kPa
  viscosity: 1 ± 0.03 mPa·s
303.15 K, 102 kPa
  viscosity: 0.95 ± 0.03 mPa·s
312.49 K, 29986 kPa
  viscosity: 1.09 ± 0.03 mPa·s
312.57 K, 25001 kPa
  viscosity: 1.05 ± 0.03 mPa·s
312.62 K, 20047 kPa
  viscosity: 1.01 ± 0.03 mPa·s
312.65 K, 10009 kPa
  viscosity: 0.92 ± 0.03 mPa·s
312.66 K, 15001 kPa
  viscosity: 0.97 ± 0.03 mPa·s
312.77 K, 103 kPa
  viscosity: 0.83 ± 0.03 mPa·s
312.78 K, 5010 kPa
  viscosity: 0.88 ± 0.03 mPa·s
322.09 K, 29925 kPa
  viscosity: 0.97 ± 0.03 mPa·s
322.17 K, 19955 kPa
  viscosity: 0.89 ± 0.03 mPa·s
322.21 K, 15004 kPa
  viscosity: 0.85 ± 0.03 mPa·s
322.23 K, 10018 kPa
  viscosity: 0.81 ± 0.03 mPa·s
322.23 K, 25027 kPa
  viscosity: 0.93 ± 0.03 mPa·s
322.26 K, 5004 kPa
  viscosity: 0.77 ± 0.02 mPa·s
322.33 K, 96 kPa
  viscosity: 0.73 ± 0.02 mPa·s
331.56 K, 30001 kPa
  viscosity: 0.87 ± 0.03 mPa·s
331.67 K, 19865 kPa
  viscosity: 0.8 ± 0.03 mPa·s
331.68 K, 25041 kPa
  viscosity: 0.83 ± 0.03 mPa·s
331.74 K, 15035 kPa
  viscosity: 0.76 ± 0.02 mPa·s
331.78 K, 5007 kPa
  viscosity: 0.69 ± 0.02 mPa·s
331.78 K, 9972 kPa
  viscosity: 0.72 ± 0.02 mPa·s
331.85 K, 99 kPa
  viscosity: 0.65 ± 0.02 mPa·s
341.48 K, 14961 kPa
  viscosity: 0.69 ± 0.02 mPa·s
341.67 K, 96 kPa
  viscosity: 0.58 ± 0.02 mPa·s
341.68 K, 10141 kPa
  viscosity: 0.65 ± 0.02 mPa·s
341.72 K, 5062 kPa
  viscosity: 0.62 ± 0.02 mPa·s
341.73 K, 29980 kPa
  viscosity: 0.78 ± 0.02 mPa·s
341.8 K, 25032 kPa
  viscosity: 0.75 ± 0.02 mPa·s
341.81 K, 20048 kPa
  viscosity: 0.72 ± 0.02 mPa·s
351.26 K, 14966 kPa
  viscosity: 0.61 ± 0.02 mPa·s
351.27 K, 10077 kPa
  viscosity: 0.58 ± 0.02 mPa·s
351.31 K, 19977 kPa
  viscosity: 0.64 ± 0.02 mPa·s
351.46 K, 30010 kPa
  viscosity: 0.7 ± 0.02 mPa·s
351.49 K, 24997 kPa
  viscosity: 0.67 ± 0.02 mPa·s
361.24 K, 29993 kPa
  viscosity: 0.64 ± 0.02 mPa·s
361.37 K, 20002 kPa
  viscosity: 0.58 ± 0.02 mPa·s
361.47 K, 25022 kPa
  viscosity: 0.61 ± 0.02 mPa·s
